# Measured values reported in patent US10149879B2 (priority 2014, dated 2018).
# Experiments:
# L6 cells = test: Anti-oxidant activity in L6 cells challenged with H2O2; assay type: cell-based; parameters: Anti-oxidant activity, cells challenged with H2O2: unit not given here; conditions: for Anti-oxidant activity, cells challenged with H2O2: L6; for protection against H2O2 induced cellular oxidative damage: L6 cells
# Text: Anti-Oxidant Activity in L6 Cells Challenged with H2O2 Berberin and Palmatine
# Anti-Oxidant Activity in L6 Cells Challenged with H2O2—Berberin and Quercetin
# Adiponectin = Adiponectin enhancing property in experimental diabetes; assay type: in vivo, rats; conditions: H.G. animals, standard drug
# Protocol: (§1) Before utilizing the test drug for human consumption the pre-clinical safety and efficacy profile of single plant candidate extract as well as in combined form was conducted following standard norms. The biological property of test formulation was validated in streptozotocin (STZ) induced diabetes animal model which also helped in evaluation of vascular complications caused due to diabetes. The effect of test drug was assessed on glucose levels, insulin level, glycosylated hemoglobin, and pro-inflammatory cytokines, and the most important bio-marker neopterin including various neuro-psychological assessments. The mechanism based study clearly indicated the neopterin decreasing potential of test formulation which exerted neuro-protective activity, better glycemic control, anti-atherosclerotic, anti-inflammatory, anti-oxidant effects in STZ induced diabetes among the animals. Further, its therapeutic activity has also been validated in neurogenic dementia and other cognitive deficits associated with diabetes mellitus. Adiponectin Enhancing Property of Berberis aristata in Experimental Diabetes
# HDL-c, VLDL-c, LDL-c = test: Lipoprotein profile and assessment of atherosclerosis; assay type: in vivo, rats; parameters: HDL-c / VLDL-c / LDL-c: unit not given here; conditions: H.G. animals; standard drug
# Protocol: (§2) Before utilizing the test drug for human consumption the pre-clinical safety and efficacy profile of single plant candidate extract as well as in combined form was conducted following standard norms. […] The effect of test drug was assessed on glucose levels, insulin level, glycosylated hemoglobin, and pro-inflammatory cytokines, and the most important bio-marker neopterin including various neuro-psychological assessments.
# Insulin = Insulin secretagogues property in diabetic animals; assay type: in vivo, rats; conditions: H.G. animals; standard drug
# Protocol: as §1, with “mellitus.” for “mellitus. Adiponectin Enhancing Property of Berberis aristata in Experimental Diabetes”
# Cholesterol = test: Anti-hyperlipidemic activity: cholesterol; assay type: in vivo, rats; conditions: H.G. animals, standard drug
# Protocol: as §1, with “mellitus.” for “mellitus. Adiponectin Enhancing Property of Berberis aristata in Experimental Diabetes”
# Effect on body weight = assay type: in vivo, rats; conditions: H.G. animals, standard drug, in g (unit assumed)
# Protocol: as §2
# [1] = test system: streptozotocin (STZ) induced diabetes animal model; test: Anti-hyperglycemic activity, weekly assessment of plasma glucose; assay type: in vivo, rats; conditions: H.G. animals, standard drug
# Protocol: as §1, with “mellitus.” for “mellitus. Adiponectin Enhancing Property of Berberis aristata in Experimental Diabetes”
# Low dose=100 mg/kg; High dose=200 mg/kg
# F,1-6 bisphosphate = test: Regulation of key enzymes in gluconeogenesis: F,1-6 bisphosphate; assay type: in vivo, rats; conditions: H.G. animals; standard drug
# Protocol: as §1, with “mellitus.” for “mellitus. Adiponectin Enhancing Property of Berberis aristata in Experimental Diabetes”
# Free Fatty Acid (FFA) = test: Reduction in free fatty acids; assay type: in vivo, rats; conditions: H.G. animals; standard drug
# Protocol: as §1, with “Reduction in Free Fatty Acids Following Test Formulation Treatment Treated with test formulation reported FFA elevation in tissues and plasma” for “Adiponectin Enhancing Property”, “diabetic rats” for “Berberis aristata in Experimental Diabetes”
# Triglycerides = test: Anti-hyperlipidemic activity on triglycerides; assay type: in vivo, rats; conditions: H.G. animals, standard drug
# Protocol: as §1, with “mellitus.” for “mellitus. Adiponectin Enhancing Property of Berberis aristata in Experimental Diabetes”
# Creatinine, Urea = test: Effect on renal function; assay type: in vivo, rats; conditions: H.G. animals; standard drug
# Protocol: as §1, with “Effect” for “Adiponectin Enhancing Property”, “Test Formulation on Renal Function” for “Berberis aristata in Experimental Diabetes”
smiles,measurement,setting,value
COc1ccc2cc3[n+](cc2c1OC)CCc1cc2c(cc1-3)OCO2 [Berberin],"Anti-oxidant activity, cells challenged with H2O2","L6 cells; Co-incubated, 10 pM, control 60.10",62.10 ± 4.40
same,"Anti-oxidant activity, cells challenged with H2O2","L6 cells; Co-incubated, 10 pg/ml, control 61.10",60.40 ± 2.20
same,"Anti-oxidant activity, cells challenged with H2O2","L6 cells; Co-incubated, 100 pM, control 60.10",63.97 ± 8.52
same,"Anti-oxidant activity, cells challenged with H2O2","L6 cells; Co-incubated, 100 pg/ml, control 61.10",66.12 ± 2.70
same,"Anti-oxidant activity, cells challenged with H2O2","L6 cells; Co-incubated, 1 nM, control 60.10",66.10 ± 5.67
same,"Anti-oxidant activity, cells challenged with H2O2","L6 cells; Co-incubated, 1 ng/ml, control 61.10",70.07 ± 2.95
same,"Anti-oxidant activity, cells challenged with H2O2","L6 cells; Co-incubated, 10 nM, control 60.10",69.40 ± 5.00
same,"Anti-oxidant activity, cells challenged with H2O2","L6 cells; Co-incubated, 10 ng/ml, control 61.10",75.14 ± 0.90
same,"Anti-oxidant activity, cells challenged with H2O2","L6 cells; Co-incubated, 100 nM, control 60.10",72.40 ± 3.03
same,"Anti-oxidant activity, cells challenged with H2O2","L6 cells; Co-incubated, 100 ng/ml, control 61.10",77.51 ± 1.70
same,"Anti-oxidant activity, cells challenged with H2O2","L6 cells; Pre-incubated, 10 pM, control 60.10",59.80 ± 6.60
same,"Anti-oxidant activity, cells challenged with H2O2","L6 cells; Pre-incubated, 10 pg/ml, control 61.10",63.50 ± 1.00
same,"Anti-oxidant activity, cells challenged with H2O2","L6 cells; Pre-incubated, 100 pM, control 60.10",60.40 ± 8.50
same,"Anti-oxidant activity, cells challenged with H2O2","L6 cells; Pre-incubated, 100 pg/ml, control 61.10",69.40 ± 2.00
same,"Anti-oxidant activity, cells challenged with H2O2","L6 cells; Pre-incubated, 1 nM, control 60.10",63.70 ± 7.25
same,"Anti-oxidant activity, cells challenged with H2O2","L6 cells; Pre-incubated, 1 ng/ml, control 61.10",71.12 ± 1.12
same,"Anti-oxidant activity, cells challenged with H2O2","L6 cells; Pre-incubated, 10 nM, control 60.10",68.60 ± 4.50
same,"Anti-oxidant activity, cells challenged with H2O2","L6 cells; Pre-incubated, 10 ng/ml, control 61.10",78.98 ± 1.90
same,"Anti-oxidant activity, cells challenged with H2O2","L6 cells; Pre-incubated, 100 nM, control 60.10",72.81 ± 5.70
same,"Anti-oxidant activity, cells challenged with H2O2","L6 cells; Pre-incubated, 100 ng/ml, control 61.10",83.70 ± 1.70
same,protection against H2O2 induced cellular oxidative damage,L6 cells; comparison with positive standard,potent protection
same,protection against H2O2 induced cellular oxidative damage,L6 cells; pM-nM doses,mild protection
CN(C)C(=N)N=C(N)N [Metformin],Adiponectin,Adiponectin; 7th day,6.90 ± 1.87 pg/mL
same,Adiponectin,Adiponectin; 14th Day,6.11 ± 1.39 pg/mL
same,HDL-c,"HDL-c, VLDL-c, LDL-c",27.68 ± 3.51
same,LDL-c,"HDL-c, VLDL-c, LDL-c",41.38 ± 4.26
same,VLDL-c,"HDL-c, VLDL-c, LDL-c",22.10 ± 3.15
same,Insulin,Insulin,109.24 ± 12.13 pg/L
same,Cholesterol,Cholesterol; 0 days,110.33 ± 9.55 mg/dL
same,Cholesterol,Cholesterol; 7th day,100.00 ± 5.63 mg/dL
same,Cholesterol,Cholesterol; 14th Day,88.17 ± 4.79 mg/dL
same,Body weight,Effect on body weight; 0th Day,207.25 ± 6.44
same,Plasma glucose,"[1]; 0th Day, in mg/dL",169.83 ± 10.03
same,Plasma glucose,"[1]; 7th Day, in mg/dL",148.67 ± 8.85
same,Plasma glucose,"[1]; 14th Day, in mg/dL",118.83 ± 8.75
same,"F,1-6 bisphosphate, Kidney","F,1-6 bisphosphate",29.67 ± 5.60 μm/min/mg of protein
same,"F,1-6 bisphosphate, Liver","F,1-6 bisphosphate",34.59 ± 4.90 μm/min/mg of protein
same,"Free Fatty Acid (FFA), Heart",Free Fatty Acid (FFA),446.83 ± 39.65 mg/100 g of tissue
same,"Free Fatty Acid (FFA), Liver",Free Fatty Acid (FFA),777.83 ± 53.14 mg/100 g of tissue
same,"Free Fatty Acid (FFA), Plasma",Free Fatty Acid (FFA),87.67 ± 7.68 mg/L
same,Triglycerides,Triglycerides; 0 days,134.77 ± 14.06 mg/dL
same,Triglycerides,Triglycerides; 7th day,123.32 ± 9.51 mg/dL
same,Triglycerides,Triglycerides; 14th Day,102.50 ± 11.75 mg/dL
same,Creatinine,"Creatinine, Urea",3.18 ± 0.05 mg/dL
same,Urea,"Creatinine, Urea",45.45 ± 5.25 mg/dL
CCc1ccc(CCOc2ccc(CC3SC(=O)NC3=O)cc2)nc1 (stereo not drawn) [Pioglitazone],Adiponectin,Adiponectin; 7th day,7.13 ± 2.10 pg/mL
same,Adiponectin,Adiponectin; 14th Day,8.02 ± 2.01 pg/mL
same,Anti-atherogenic index,"HDL-c, VLDL-c, LDL-c",10.02 ± 5.23
same,Atherogenic Index,"HDL-c, VLDL-c, LDL-c",2.20 ± 0.35
same,HDL-c,"HDL-c, VLDL-c, LDL-c",31.44 ± 2.85
same,LDL-c,"HDL-c, VLDL-c, LDL-c",35.11 ± 7.29
same,VLDL-c,"HDL-c, VLDL-c, LDL-c",17.86 ± 2.05
same,Insulin,Insulin,105.31 ± 9.10 pg/L
same,Cholesterol,Cholesterol; 0 days,112.33 ± 7.50 mg/dL
same,Cholesterol,Cholesterol; 7th day,94.23 ± 8.23 mg/dL
same,Cholesterol,Cholesterol; 14th Day,81.41 ± 9.94 mg/dL
same,Body weight,Effect on body weight; 0th Day,200.00 ± 4.65
same,Body weight,Effect on body weight; 7th Day,178.80 ± 4.00
same,Body weight,Effect on body weight; 14th Day,169.13 ± 2.84
same,Plasma glucose,[1]; 0th Day,170.17 ± 12.55
same,Plasma glucose,"[1]; 7th Day, in mg/dL",153.83 ± 15.68
same,Plasma glucose,"[1]; 14th Day, in mg/dL",140.17 ± 6.25
same,"F,1-6 bisphosphate, Kidney","F,1-6 bisphosphate",31.78 ± 3.71 μm/min/mg of protein
same,"F,1-6 bisphosphate, Liver","F,1-6 bisphosphate",44.33 ± 4.29 μm/min/mg of protein
same,"Free Fatty Acid (FFA), Heart",Free Fatty Acid (FFA),379.17 ± 22.06 mg/100 g of tissue
same,"Free Fatty Acid (FFA), Liver",Free Fatty Acid (FFA),522.67 ± 37.75 mg/100 g of tissue
same,"Free Fatty Acid (FFA), Plasma",Free Fatty Acid (FFA),69.00 ± 5.60 mg/L
same,Triglycerides,Triglycerides; 0 days,133.35 ± 09.77 mg/dL
same,Triglycerides,Triglycerides; 7th day,117.50 ± 9.02 mg/dL
same,Triglycerides,Triglycerides; 14th Day,71.30 ± 6.26 mg/dL
same,Creatinine,"Creatinine, Urea",3.20 ± 0.09 mg/dL
same,Urea,"Creatinine, Urea",48.00 ± 2.00 mg/dL
